Measurements reported in publication PMC6271642, “New Derivatives of 3,4-Dihydroisoquinoline-3-carboxylic Acid with Free-Radical Scavenging, D-Amino Acid Oxidase, Acetylcholinesterase and Butyrylcholinesterase Inhibitory Activity” (Molecules, 2014).

Experiments:
[1] = molecular target: T1, D-Amino acid oxidase from porcine kidney (DAAO) (Sus scrofa, UniProt P00371); test: colorimetric, […],4-dinitrophenylhydrazine detection of keto acid; assay type: biochemical; conditions: read-out: DAAO Inhibition [IC50] ^c/[%] ^d
T1 construct: gene DAO; native enzyme from porcine kidney, Sigma-Aldrich
T1 sequence (P00371 whole entry): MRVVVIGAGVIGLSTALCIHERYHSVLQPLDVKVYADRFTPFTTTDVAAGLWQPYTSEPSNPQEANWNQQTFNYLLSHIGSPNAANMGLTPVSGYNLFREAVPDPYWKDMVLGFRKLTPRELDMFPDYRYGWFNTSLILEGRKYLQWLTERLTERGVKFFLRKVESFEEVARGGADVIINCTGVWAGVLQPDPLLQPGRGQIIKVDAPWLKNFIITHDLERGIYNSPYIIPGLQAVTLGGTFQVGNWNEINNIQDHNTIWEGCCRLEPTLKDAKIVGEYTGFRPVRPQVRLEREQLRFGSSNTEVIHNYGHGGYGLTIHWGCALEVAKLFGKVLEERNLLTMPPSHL

[2] = molecular target: T1, D-Amino acid oxidase from porcine kidney (DAAO); test: as above; assay type: biochemical; conditions: D-Ala substrate, 0.2 M Tris-HCl pH 8.2, 37 °C, 30 min
[3] = molecular target: T2, butyrylcholinesterase from equine serum (BuChE) (Equus caballus, UniProt P81908); test: biochemical
T2 construct: gene BCHE
T2 sequence (P81908 whole entry): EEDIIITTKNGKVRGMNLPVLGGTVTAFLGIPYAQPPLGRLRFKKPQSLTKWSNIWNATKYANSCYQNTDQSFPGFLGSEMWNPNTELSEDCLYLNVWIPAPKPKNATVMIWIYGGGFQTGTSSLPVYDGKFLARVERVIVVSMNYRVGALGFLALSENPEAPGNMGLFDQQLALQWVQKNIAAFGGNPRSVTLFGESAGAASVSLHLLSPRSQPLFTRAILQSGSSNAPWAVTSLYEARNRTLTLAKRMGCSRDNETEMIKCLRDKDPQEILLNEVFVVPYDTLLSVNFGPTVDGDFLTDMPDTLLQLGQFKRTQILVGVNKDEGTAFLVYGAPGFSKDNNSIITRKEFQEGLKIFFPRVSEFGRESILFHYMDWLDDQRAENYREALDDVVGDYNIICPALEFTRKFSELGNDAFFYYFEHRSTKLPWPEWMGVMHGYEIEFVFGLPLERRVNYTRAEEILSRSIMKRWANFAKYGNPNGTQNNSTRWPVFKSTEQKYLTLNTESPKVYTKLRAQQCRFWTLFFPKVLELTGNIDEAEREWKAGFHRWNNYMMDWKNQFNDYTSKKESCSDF

[4] = molecular target: acetylcholinesterase from Electrophorus electricus (AChE) (Electrophorus electricus, UniProt O42275); test: biochemical
Sequence of acetylcholinesterase from Electrophorus electricus (AChE) (O42275 24-633): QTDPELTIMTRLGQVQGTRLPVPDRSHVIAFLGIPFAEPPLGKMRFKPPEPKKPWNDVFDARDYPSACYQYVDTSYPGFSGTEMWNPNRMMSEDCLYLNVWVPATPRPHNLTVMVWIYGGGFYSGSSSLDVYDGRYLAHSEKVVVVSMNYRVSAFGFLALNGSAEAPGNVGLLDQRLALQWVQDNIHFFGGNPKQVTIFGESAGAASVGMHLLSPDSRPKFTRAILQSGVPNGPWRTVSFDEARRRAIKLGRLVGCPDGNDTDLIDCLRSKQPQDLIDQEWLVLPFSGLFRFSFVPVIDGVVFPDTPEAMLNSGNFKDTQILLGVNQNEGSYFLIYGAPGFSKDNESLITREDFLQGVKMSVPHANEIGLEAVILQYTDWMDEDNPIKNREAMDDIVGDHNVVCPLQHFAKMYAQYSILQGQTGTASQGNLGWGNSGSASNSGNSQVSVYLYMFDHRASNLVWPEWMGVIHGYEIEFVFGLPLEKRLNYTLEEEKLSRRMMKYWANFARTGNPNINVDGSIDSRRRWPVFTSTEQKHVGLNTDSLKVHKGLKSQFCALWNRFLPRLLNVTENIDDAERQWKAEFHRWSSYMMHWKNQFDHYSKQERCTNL

| DAAO Inhibition [IC50] ^c/[%] ^d ([2]; unreliable (above the highest final concentration of about 3.57 mM, extrapolated)) [mM] | Compound | IC50 [1] [µM] | DAAO Inhibition [IC50] ^c/[%] ^d ([2]; 3570 µM, 3.57 mM compound) [%] | IC50 [3] [µM] | IC50 [4] [µM] |
| --- | --- | --- | --- | --- | --- |
| – | O=C(O)C1Cc2cc(O)c(O)c(I)c2C=N1 (racemic) [5d, 6,7-Dihydroxy-8-iodo-3,4-dihydroisoquinolin-3-carboxylic acid] | 3350 | – | – | – |
| – | O=C(O)C1Cc2cc(O)cc(O)c2C=N1 (racemic) [5c, 6,8-Dihydroxy-3,4-dihydroisoquinolin-3-carboxylic acid] | 1660 | – | – | – |
| – | C[C@@]1(C(=O)O)Cc2cc(O)c(O)cc2C=N1 [compound 13, (S)-6,7-Dihydroxy-3-methyl-3,4-dihydroisoquinolin-3-carboxylic Acid] | – | 7.89 | 620 | 1780 |
| – | O=C(O)C1Cc2cc(O)c(O)cc2C=N1 (racemic) [5e, 6,7-Dihydroxy-3,4-dihydroisoquinolin-3-carboxylic acid] | – | 7.52 | 370 | 560 |
| – | O=C(O)C1Cc2c(Cl)c(O)cc(O)c2C=N1 (racemic) [5k, 5-Chloro-6,8-dihydroxy-3,4-dihydroisoquinolin-3-carboxylic acid] | – | 7.27 | 1420 | 590 |
| – | CC1(C(=O)O)Cc2cc(O)c(O)cc2C2C(Cl)C(=O)N21 (stereo not shown) [compound 15, 1-Chloro-7,8-dihydroxy-4-methyl-2-oxo-1,4,5,9b-tetrahydro-2H-azeto[2,1-a]-isoquinoline-4-carboxylic Acid] | 2020 | – | 1750 | – |
| – | O=C(O)C1CCc2cc(O)c(O)cc2C=N1 (racemic) [compound 9, 7,8-Dihydroxy-4,5-dihydro-3H-2-benzazepine-3-carboxylic Acid] | 550 | – | – | 2080 |
| – | O=C(O)C1Cc2cc(O)c(Br)c(O)c2C=N1 (racemic) [5j, 7-Bromo-6,8-dihydroxy-3,4-dihydroisoquinolin-3-carboxylic acid] | – | 11.50 | 640 | 470 |
| – | O=C(O)C1Cc2c(cc(O)c(O)c2Cl)C=N1 (racemic) [5l, 5-Chloro-6,7-dihydroxy-3,4-dihydroisoquinolin-3-carboxylic acid] | 1290 | – | 170 | – |
| 8.46 | O=C(O)C1Cc2c(Br)ccc(O)c2C=N1 (racemic) [5a, 5-Bromo-8-hydroxy-3,4-dihydroisoquinolin-3-carboxylic acid] | – | – | – | – |
| – | O=C(O)C1Cc2cc(O)c(O)c(Cl)c2C=N1 (racemic) [5h, 8-Chloro-6,7-dihydroxy-3,4-dihydroisoquinolin-3-carboxylic acid] | 1740 | – | – | 820 |
| – | O=C(O)C1Cc2ccc(Br)c(O)c2C=N1 (racemic) [5b, 7-Bromo-8-hydroxy-3,4-dihydroisoquinolin-3-carboxylic acid] | – | 13.88 | – | – |
| – | O=C(O)C1Cc2c(O)c(O)cc(Br)c2C=N1 (racemic) [5f, 8-Bromo-5,6-dihydroxy-3,4-dihydroisoquinolin-3-carboxylic acid] | 2060 | – | – | 540 |
| – | O=C(O)C1Cc2cc(O)c(O)c(Br)c2C=N1 (racemic) [5g, 8-Bromo-6,7-dihydroxy-3,4-dihydroisoquinolin-3-carboxylic acid] | 2000 | – | – | – |
| – | O=C(O)c1ccccc1 [Benzoic acid, reference compound] | 2280 | – | – | – |
